Our source for the IC50 values is patent publication US11179399B2, “6-heterocyclyl-4-morpholin-4-ylpyridine-2-one compounds useful for the treatment of cancer and diabetes” (Sprint Bioscience AB, priority 2016, dated 2021).

For assay [1], the target named is Vps34 enzyme (Homo sapiens (Human), UniProt Q8NEB9). Briefly: Vps34 biochemical assay (Adapta kinase assay). To be noted: 20 μM ATP and 200 μM PI:PS in substrate mix, 1 h at room temperature, read-out: Median IC50 uM Adapta. On the procedure:
Dilution series of compounds of the invention were prepared in DMSO at 100 times the final assay concentration (n1=n0/3 in 10 points). The compounds were further diluted to 4 times the assay concentration in assay buffer (Life technologies buffer Q, PV5125, diluted 5 times supplemented with 2 mM DTT and 2 mM MnCl2). 2.5 μl of the diluted compounds were added to a 384 well assay plate followed by 2.5 μl of 16.5 nM Vps34 enzyme (Life technologies, PV5126). Enzyme and compounds were pre-incubated at rt for 15 min. Then 5 μl of substrate mix containing 20 μM ATP (Life technologies, PV3227) and 200 μM PI:PS substrate (Life technologies, PV5122) in assay buffer was added to the wells containing compound and enzyme. Mixing was performed by pipetting several times. The reaction was incubated at room temperature for 1 h. Then 5 μl stop-detection mix, prepared as described in the Adapta kinase assay kit instructions (Life technologies, PV5099) containing Adapta Eu-anti-ADP antibody (2.3 nM), Alexa Fluor 647 ADP tracer (9 nM) and EDTA (30 mM) in TR-FRET buffer, was added to quench the reaction. Mixing was performed by pipetting several times. The assay plate was then incubated at room temperature for 30 min and read with Artemis micro plate reader. Percent inhibition of the compounds as compared to DMSO treated control samples was calculated. By the use of Dotmatics software compound concentration versus percent inhibition was fitted to generate IC50 values.

The test system of assay [2] is autophagy in HOS cells (GFP-LC3). Briefly: High content screening autophagy assay (GFP-LC3 foci). It is filed as cell-based, Human. To be noted: Homo sapiens, HOS, 6 h, HOS cells with GFP-LC3, autophagy activated by KU-0063794 500 nM with Bafilomycin A1 5 nM, foci area per cell, read-out: Median IC50 (uM) Cellular assay. On the procedure:
Human osteosarcoma cells (HOS) stably expressing a Green Fluorescent Protein (GFP) tagged LC3 (GFP-LC3) were used to determine the inhibitory effect on autophagy of proprietary compounds. For that purpose, autophagy was activated by using the mTOR inhibitor KU-0063794 at 500 nM in the presence of Bafilomycin A1 (Sigma-Aldrich) at 5 nM. Shortly, cells were plated overnight in clear bottom 96-well plates in DMEM-High Modified media (Hi-Clone Cat #SH30285.01). At the start of the experiment, the media was removed and replaced with fresh media containing the mTOR inhibitor, Bafilomycin A1 and the vehicle or a test compound as indicated. After 6 hours the media was removed, cells were washed twice with ice-cold phosphate buffered saline (PBS) and fixed with 4% paraformaldehyde for 20 minutes at room temperature. Then the cells were washed twice with ice-cold PBS before adding Hoechst 33342 at 1 μg/ml in PBS for nuclear staining. After incubation overnight at 4° C., cells were washed once with PBS to remove the excess of dye and 100 μl of PBS was added to each well. Images were acquired at 20× magnification, 6 images per well, using the ImageXpress automated microscope (Molecular Devices Inc.) and analyzed with MetaXpress software to identify LC3-GFP foci. Foci area per cell values were used to generate dose response curves and IC50 values were calculated using the non-linear fitting analysis in GraphPad Prism software.

Chain of Vps34 enzyme (Q8NEB9 whole entry): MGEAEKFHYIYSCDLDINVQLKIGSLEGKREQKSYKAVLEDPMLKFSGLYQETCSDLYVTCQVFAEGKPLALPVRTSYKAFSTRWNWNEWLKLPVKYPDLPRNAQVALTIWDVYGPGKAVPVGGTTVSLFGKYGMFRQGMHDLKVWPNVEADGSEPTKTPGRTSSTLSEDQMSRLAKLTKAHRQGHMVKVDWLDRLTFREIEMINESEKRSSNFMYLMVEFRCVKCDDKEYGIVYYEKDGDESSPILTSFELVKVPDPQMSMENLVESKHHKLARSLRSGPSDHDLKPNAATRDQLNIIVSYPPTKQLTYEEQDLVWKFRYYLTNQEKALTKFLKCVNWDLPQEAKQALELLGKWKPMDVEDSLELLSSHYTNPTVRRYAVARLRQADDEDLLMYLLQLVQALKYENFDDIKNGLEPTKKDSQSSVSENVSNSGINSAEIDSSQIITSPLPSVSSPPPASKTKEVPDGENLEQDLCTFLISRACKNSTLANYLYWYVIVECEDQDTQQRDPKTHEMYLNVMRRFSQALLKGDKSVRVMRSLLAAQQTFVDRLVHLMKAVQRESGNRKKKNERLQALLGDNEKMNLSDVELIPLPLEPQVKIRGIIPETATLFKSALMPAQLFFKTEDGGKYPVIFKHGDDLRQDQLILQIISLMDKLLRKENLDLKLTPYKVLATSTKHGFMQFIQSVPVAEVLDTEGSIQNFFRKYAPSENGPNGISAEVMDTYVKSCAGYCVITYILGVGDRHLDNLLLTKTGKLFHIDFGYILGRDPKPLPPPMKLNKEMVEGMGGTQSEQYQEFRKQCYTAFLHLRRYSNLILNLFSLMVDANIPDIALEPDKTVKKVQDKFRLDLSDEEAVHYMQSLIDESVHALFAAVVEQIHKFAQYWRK

A word on the IC50: it is the concentration needed to halve the response being measured. As to `CC1COCCN1c1cc(C2=CCOCC2)[nH]c(=O)c1` (stereo not drawn) [Example 5, 6-(3,6-dihydro-2H-pyran-4-yl)-4-(3-methylmorpholin-4-yl)-1H-pyridin-2-one], the concentration for half-maximal inhibition (IC50) in assay [1] was found to be 0.2 µM; in assay [2], 15 µM.

On to `COc1cccc(C2CCCCN2c2cc(N3CCOC[C@H]3C)cc(=O)[nH]2)c1` (single isomer, unassigned) [Example 44_1], for which the IC50 in assay [1] came out at 0.001 µM; in assay [2], 0.2 µM.

Consider `C[C@@H]1COCCN1c1cc(N2CCCCC2C(F)(F)F)[nH]c(=O)c1` (mixture of isomers) [Example 25, (R) and (S) 4-[(3R)-3-methylmorpholin-4-yl]-6-[2-(trifluoromethyl)-1-piperidyl]-1H-pyridin-2-one], for which the concentration for half-maximal inhibition (IC50) in assay [1] came out at 0.004 µM; in assay [2], 0.02 µM.

`CC1COCCN1c1cc(N2CCCC2c2ccccc2)[nH]c(=O)c1` (stereo not drawn) [Example 9, 4-(3-methylmorpholin-4-yl)-6-(2-phenylpyrrolidin-1-yl)-1H-pyridin-2-one]: the IC50 in assay [1] is 0.02 µM; in assay [2], 2 µM.

`C[C@@H]1COCCN1c1cc(N2CCCC[C@@H]2C(F)(F)F)n(C)c(=O)c1` [Example 41, 1-methyl-4-[(3R)-3-methylmorpholin-4-yl]-6-[(2R)-2-(trifluoromethyl)-1-piperidyl]pyridin-2-one]: the IC50 in assay [1] was determined as 0.01 µM; in assay [2] it was 0.08 µM.

On to `CC1COCCN1c1cc(N2CCCC2c2cccnc2)[nH]c(=O)c1` (stereo not drawn) [Example 8, 4-(3-methylmorpholin-4-yl)-6-[2-(3-pyridyl)pyrrolidin-1-yl]-1H-pyridin-2-one], for which the IC50 in assay [1] turned out to be 0.05 µM; in assay [2], 10 µM.

Consider `C[C@@H]1COCCN1c1cc(N2CCCCC2C(F)(F)F)[nH]c(=O)c1` (single isomer, unassigned) [Example 25_1], for which the IC50 in assay [1] is 0.002 µM; in assay [2], 0.03 µM.

In the case of `C[C@@H]1COCCN1c1cc(N2CCCC2c2ccccc2)[nH]c(=O)c1` (single isomer, unassigned) [Example 18_2], the IC50 in assay [1] amounted to 0.02 µM; in assay [2] it was 1 µM.

For the molecule `CC1COCCN1c1cc(N2CCOC[C@H]2C)cc(=O)[nH]1` (single isomer, unassigned) [Example 24_1], the IC50 turned out to be 0.01 µM in assay [1] and 1.4 µM in assay [2].

Consider `C[C@@H]1COCCN1c1cc(N2CCCC[C@@H]2c2ccccc2)[nH]c(=O)c1` [Example 30, 4-[(3R)-3-methylmorpholin-4-yl]-6-[(2R)-2-phenyl-1-piperidyl]-1H-pyridin-2-one], for which the IC50 in assay [1] was 0.008 µM; in assay [2], 0.6 µM.

Take `O=c1cc(N2CCOCC2)cc(N2CCC[C@@H]2c2ccccc2)[nH]1` [Example 4, 4-morpholino-6-[(2R)-2-phenylpyrrolidin-1-yl]-1H-pyridin-2-one]: the IC50 was found to be 0.05 µM in assay [1] and 9 µM in assay [2].

Regarding `C[C@@H]1COCCN1c1cc(N2CCCC2c2cccc(C3CC3)c2)[nH]c(=O)c1` (stereo partly drawn) [Example 37, 6-[2-(3-cyclopropylphenyl)pyrrolidin-1-yl]-4-[(3R)-3-methylmorpholin-4-yl]-1H-pyridin-2-one], the IC50 was found to be 0.02 µM in assay [1] and 0.3 µM in assay [2].

In the case of `CC(=O)N1CCN(c2cc(N3CCOC[C@H]3C)cc(=O)[nH]2)C(C(F)(F)F)C1` (stereo partly drawn) [Example 45, 6-[4-acetyl-2-(trifluoromethyl)piperazin-1-yl]-4-[(3R)-3-methylmorpholin-4-yl]-1H-pyridin-2-one], the 50% inhibitory concentration (IC50) in assay [1] amounted to 0.003 µM; in assay [2] it was 0.1 µM.

For the molecule `C[C@@H]1COCCN1c1cc(N2CCCC2c2cccc(F)c2)[nH]c(=O)c1` (mixture of isomers) [Example 13, (R) and (S) 6-[2-(3-fluorophenyl)pyrrolidin-1-yl]-4-[(3R)-3-methylmorpholin-4-yl]-1H-pyridin-2-one], the values for the half-maximal inhibitory concentration (IC50) in assay [1] and in assay [2] were 0.02 µM and 2 µM, respectively.

In the case of `C[C@@H]1COCCN1c1cc(N2CCCC2c2cccc(Cl)c2)[nH]c(=O)c1` (mixture of isomers) [Example 36, (R) and (S) 6-[2-(3-chlorophenyl)pyrrolidin-1-yl]-4-[(3R)-3-methylmorpholin-4-yl]-1H-pyridin-2-one], the results for the IC50 in assay [1] and in assay [2] were 0.02 µM and 0.03 µM, respectively.

Consider `Cc1ccc(C2CCCN2c2cc(N3CCOC[C@H]3C)cc(=O)[nH]2)o1` (single isomer, unassigned) [Example 22_2], for which, in assay [1], the concentration for half-maximal inhibition (IC50) was determined as 0.1 µM.

In the case of `CCn1ccc(C2CCCN2c2cc(N3CCOC[C@H]3C)cc(=O)[nH]2)n1` (single isomer, unassigned) [Example 21_1], the IC50 in assay [1] turned out to be 0.1 µM.

As for `C[C@@H]1COCCN1c1cc(N2CCCC2C2CCCCC2)[nH]c(=O)c1` (single isomer, unassigned) [Example 12_2], the IC50 in assay [1] is 0.2 µM.

For `CCn1ccc(C2CCCN2c2cc(N3CCOC[C@H]3C)cc(=O)[nH]2)n1` (single isomer, unassigned) [Example 21_2], the IC50 in assay [1] was 0.3 µM.

Regarding `C[C@@H]1COCCN1c1cc(N2CCCC2c2cccc(C(F)(F)F)c2)[nH]c(=O)c1` (single isomer, unassigned) [Example 16_1], in assay [1], the IC50 came out at 0.03 µM.

`C[C@@H]1COCCN1c1cc(N2CCCC2c2cnn(C)c2)[nH]c(=O)c1` (mixture of isomers) [Example 19, (R) and (S) 4-[(3R)-3-methylmorpholin-4-yl]-6-[2-(1-methylpyrazol-4-yl)pyrrolidin-1-yl]-1H-pyridin-2-one]: the IC50 in assay [1] came out at 0.1 µM.

In the case of `COC(C)(C)C1CCCN1c1cc(N2CCOC[C@H]2C)cc(=O)[nH]1` (single isomer, unassigned) [Example 11_1], the half-maximal inhibitory concentration (IC50) in assay [1] stood at 0.2 µM.

Turning to `C[C@@H]1COCCN1c1cc(N2CCOCC23CCC3)[nH]c(=O)c1` [Example 42, 4-[(3R)-3-methylmorpholin-4-yl]-6-(8-oxa-5-azaspiro[3.5]nonan-5-yl)-1H-pyridin-2-one], the concentration for half-maximal inhibition (IC50) in assay [1] was 0.03 µM.

On to `C[C@@H]1COCCN1c1cc(N2CCOCC2C(F)(F)F)[nH]c(=O)c1` (single isomer, unassigned) [Example 43_2], for which the IC50 in assay [1] came to 0.1 µM.

`Cc1cc(C2CCCN2c2cc(N3CCOC[C@H]3C)cc(=O)[nH]2)no1` (mixture of isomers) [Example 40, (R) and (S) 6-[2-(5-methylisoxazol-3-yl)pyrrolidin-1-yl]-4-[(3R)-3-methylmorpholin-4-yl]-1H-pyridin-2-one]: the half-inhibitory concentration (IC50) in assay [1] turned out to be 0.1 µM.

On to `C[C@@H]1COCCN1c1cc(N2CCN(C)CC2c2ccccc2)[nH]c(=O)c1` (stereo partly drawn) [Example 31, 4-[(3R)-3-methylmorpholin-4-yl]-6-(4-methyl-2-phenyl-piperazin-1-yl)-1H-pyridin-2-one], for which, in assay [1], the 50% inhibitory concentration (IC50) is 0.3 µM.

As for `C[C@@H]1COCCN1c1cc(N2CCCC2c2cccc(N(C)C)c2)[nH]c(=O)c1` (mixture of isomers) [Example 23, (R) and (S) 6-[2-[3-(dimethylamino)phenyl]pyrrolidin-1-yl]-4-[(3R)-3-methylmorpholin-4-yl]-1H-pyridin-2-one], in assay [1], the IC50 amounted to 0.03 µM.

Turning to `C[C@@H]1COCCN1c1cc(N2CCN(C(=O)C3CCCO3)CC2C(F)(F)F)[nH]c(=O)c1` (single isomer, unassigned) [Example 48_2], the IC50 in assay [1] was determined as 0.02 µM.

Regarding `C[C@@H]1COCCN1c1cc(N2CCCC2c2cc(F)ccc2F)[nH]c(=O)c1` (single isomer, unassigned) [Example 14_2], the IC50 in assay [1] was 0.05 µM.

As to `C[C@@H]1COCCN1c1cc(N2CCCC2c2ccccn2)[nH]c(=O)c1` (single isomer, unassigned) [Example 38_2], the IC50 in assay [1] amounted to 0.2 µM.

As to `C[C@@H]1COCCN1c1cc(N2CCCC2c2cccc(OC(F)(F)F)c2)[nH]c(=O)c1` (single isomer, unassigned) [Example 15_2], in assay [1], the IC50 is 0.2 µM.

Turning to `Cc1cc(C2CCCN2c2cc(N3CCOC[C@H]3C)cc(=O)[nH]2)no1` (single isomer, unassigned) [Example 40_1], the IC50 in assay [1] stood at 0.1 µM.

`CC(=O)N1CCN(c2cc(N3CCOC[C@H]3C)cc(=O)[nH]2)CC1` [Example 29, 6-(4-acetylpiperazin-1-yl)-4-[(3R)-3-methylmorpholin-4-yl]-1H-pyridin-2-one]: in assay [1], the concentration for half-maximal inhibition (IC50) came to 0.2 µM.
